Reference: patent US20200383906A1 (Evestra, Inc., priority 2019, published 2020)
“Also recorded” adds a separate entry of the source. Like-named read-outs stand apart in the source and are kept apart here.

Tests used:
[1] = biological target: estrogen receptor ERß (Homo sapiens, UniProt Q92731); details: cited from earlier work
[2] = system: ovariectomized rodents; details: parenteral administration; cited from earlier work
[3] = system: SHBG; details: women, entire range of tested doses; cited from earlier work
[4] = system: ovine genital organs; experiment: Experiments in sheep: estrogenic effect of estriol under trimegestone; type: in vivo; details: on trimegestone
Description: This estrogenic effect in the genital tract in the presence of a progestogen leads to prevention of spotting and intermenstrual bleeding in humans. Such bleedings on the “pill” are an expression of an endometrial estrogen deficiency.

[5] = system: ovulation; experiment: Clinical study of vaginal rings: ovulation inhibition, follicular maturation; type: in vivo, women; details: used release rate of estriol alone
Protocol: Testing of three vaginal ring prototypes (Device 1, Device 2, and Device 3, described above) in 12 women as preformed. The expected average release rate per day of each device is described in Table 2. Vaginal ring (VR) insertion was performed after pill cycle completion and menstrual bleeding. Observation of a VR over a period of 21 days. Follow-up after removal of the VR. All VR variants tested inhibit ovulation. Ovulation inhibition persisted for more than 7 days after removal of the rings. Signs of follicular maturation at the start of treatment (higher oestradiol levels) disappear during treatment. The effect reflects inhibition of follicular maturation. For the most part, there were no bleeding events during treatment at all and, where they did occur, only to a very small extent (“spotting”). Withdrawal bleeding was observed only after the highest trimegestone dosage.
The course of the estradiol levels in the circulation reflects follicular maturation in the ovary. FIG. 5 depicts the individual serum concentrations of estradiol during single vaginal application of Device 3. […] After removal of the vaginal ring, the estradiol values increase starting from baseline. This increase reflects follicular maturation. […] FIG. 6 depicts the individual serum concentrations of progesterone during single vaginal application of Device 3. […]

[6] = human, cited from earlier work
[7] = young women, 2.0 and 4.0 mg orally; cited from earlier work

Sequence of estrogen receptor ERß (Q92731 whole entry): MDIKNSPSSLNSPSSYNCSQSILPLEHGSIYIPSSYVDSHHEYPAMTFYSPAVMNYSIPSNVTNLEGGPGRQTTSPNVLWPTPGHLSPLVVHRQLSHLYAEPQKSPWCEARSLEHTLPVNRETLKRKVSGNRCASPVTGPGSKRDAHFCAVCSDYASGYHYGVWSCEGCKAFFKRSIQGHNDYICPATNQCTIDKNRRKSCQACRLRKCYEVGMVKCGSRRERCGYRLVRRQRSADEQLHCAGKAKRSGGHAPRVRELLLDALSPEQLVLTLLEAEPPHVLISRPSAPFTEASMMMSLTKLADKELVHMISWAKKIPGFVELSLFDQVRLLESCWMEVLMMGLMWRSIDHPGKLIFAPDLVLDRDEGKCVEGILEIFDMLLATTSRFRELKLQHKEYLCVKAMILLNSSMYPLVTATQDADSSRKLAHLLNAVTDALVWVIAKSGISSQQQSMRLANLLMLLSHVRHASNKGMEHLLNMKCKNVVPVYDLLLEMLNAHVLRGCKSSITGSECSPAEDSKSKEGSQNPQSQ

Q: What does the source list for C[C@]12CC[C@@H]3c4ccc(O)cc4CC[C@H]3[C@@H]1C[C@@H](O)[C@@H]2O [estriol]?
A: Binding with ERß compared with estradiol [1]: weaker and less stable binding; Estrogenic potency compared with estradiol [2]: about factor ten weaker; Changes in surrogate parameter SHBG [3]: no relevant changes were seen; Estrogenic effect of estriol in the genital tract in the presence of trimegestone [4]: is not inhibited; also recorded: are not attenuated; Levels of FSH and LH [5]: decreased

Q: For C#C[C@]1(O)CC[C@H]2[C@@H]3CCc4cc(O)ccc4[C@H]3CC[C@@]21C [EE, 17α-ethinyl estradiol], which Oral bioavailability ([6]; oral vs intravenous) is on record?
A: The Oral bioavailability was “about 40%”.

Q: What about the First pass effect ([6]; oral) of the same compound?
A: The First pass effect was 60%.

Q: For C[C@]12CC[C@@H]3c4ccc(O)cc4CC[C@H]3[C@@H]1CC[C@@H]2O [Estradiol-17ß], which Oral bioavailability [7] is on record?
A: Its Oral bioavailability is 4.9+/−5%.
